Experimental findings from patent publication US8952157B2, “Apoptosis-inducing agents for the treatment of cancer and immune and autoimmune diseases” (AbbVie Inc., priority 2008, dated 2015) are described below.

The target of one experiment is GST-Bcl-2 (Homo sapiens (Human), UniProt P10415). The experiment in a line: Time Resolved-Fluorescence Resonance Energy Transfer (TR-FRET) Bcl-2 binding assay.
Chain of GST-Bcl-2 (P10415 whole entry): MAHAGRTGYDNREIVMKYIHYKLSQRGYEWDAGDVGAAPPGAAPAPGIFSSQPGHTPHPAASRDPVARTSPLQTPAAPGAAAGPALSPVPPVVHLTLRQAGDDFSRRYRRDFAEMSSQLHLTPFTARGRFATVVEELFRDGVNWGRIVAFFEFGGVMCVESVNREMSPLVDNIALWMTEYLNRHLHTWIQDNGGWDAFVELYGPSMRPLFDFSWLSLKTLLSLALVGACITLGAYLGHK
Conditions: not given
The method, boiled down:
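Ki values derived from TR-FRET displacement of F-Bak peptide from GST-Bcl-2, detected with Tb-labelled anti-GST antibody (ex 340, em 520/495 nm). Compound dilution series started at 50 μM (2× starting concentration); room-temperature incubation 3 hours.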
On the technique in general: TR-FRET usually uses a lanthanide donor and a delayed reading to cut background.
A word on the Ki: it is the equilibrium dissociation constant of an inhibitor or competing ligand from its target. A lower Ki goes with tighter binding. `CN1CCC(Nc2ccc(S(=O)(=O)NC(=O)c3ccc(N4CCN(CC5=C(c6ccc(Cl)cc6)CC(C)(C)CC5)CC4)cc3Oc3cc4cc[nH]c4cc3C(F)(F)F)cc2[N+](=O)[O-])CC1` [Example 217, 4-(4-{[2-(4-chlorophenyl)-4,4-dimethylcyclohex-1-en-1-yl]methyl)piperazin-1-yl)-N-((4-[(1-methylpiperidin-4-yl)amino]-3-nitrophenyl}sulfonyl)-2-{[6-(trifluoromethyl)-1H-indol-5-yl]oxy}benzamide]: the affinity corresponds to a Ki of 0.174 nM.

`CC1(C)CCC(CN2CCN(c3ccc(C(=O)NS(=O)(=O)c4ccc(N[C@H]5CC[C@H](N6CCOCC6)CC5)c([N+](=O)[O-])c4)c(Oc4cc5cc[nH]c5cc4F)c3)CC2)=C(c2ccc(Cl)cc2)C1` [Example 234, Trans-4-(4-{[2-(4-chlorophenyl)-4,4-dimethylcyclohex-1-en-1-yl]methyl}piperazin-1-yl)-2-[(6-fluoro-1H-indol-5-yl)oxy]-N-({4-[(4-morpholin-4-ylcyclohexyl)amino]-3-nitrophenyl}sulfonyl)benzamide] returned a Ki of 0.099 nM.

Turning to `CC1(C)CCC(CN2CCN(c3ccc(C(=O)NS(=O)(=O)c4ccc(N[C@H]5CC[C@H](N6CCOCC6)CC5)c([N+](=O)[O-])c4)c(Oc4cc5cc[nH]c5c(F)c4F)c3)CC2)=C(c2ccc(Cl)cc2)C1` [Example 235, Trans-4-(4-{[2-(4-chlorophenyl)-4,4-dimethylcyclohex-1-en-1-yl]methyl}piperazin-1-yl)-2-[(6,7-difluoro-1H-indol-5-yl)oxy]-N-({4-[(4-morpholin-4-ylcyclohexyl)amino]-3-nitrophenyl}sulfonyl)benzamide], affinity was put at a Ki of 0.039 nM.

Staying with this experiment, now noted: GST-Bcl-2 1 nM, F-Bak peptide probe 100 nM, Tb-anti-GST antibody 1 nM; Ki by Wang's equation.
Turning to `CC1(C)CCC(CN2CCN(c3ccc(C(=O)NS(=O)(=O)c4ccc(NC5CCN(C6CCOCC6)CC5)c([N+](=O)[O-])c4)c(Oc4cccc5[nH]c(C(F)(F)F)cc45)c3)CC2)=C(c2ccc(Cl)cc2)C1` [Example 215, 4-(4-{[2-(4-chlorophenyl)-4,4-dimethylcyclohex-1-en-1-yl]methyl}piperazin-1-yl)-N-({3-nitro-4-[(1-tetrahydro-2H-pyran-4-ylpiperidin-4-yl)amino]phenyl}sulfonyl)-2-{[2-(trifluoromethyl)-1H-indol-4-yl]oxy}benzamide], the affinity, expressed as Ki, was 2.95 nM.

`CC1(C)CCC(CN2CCN(c3ccc(C(=O)NS(=O)(=O)c4ccc(NC5CCN(C6CCOCC6)CC5)c([N+](=O)[O-])c4)c(Oc4ccc(O)cc4Cl)c3)CC2)=C(c2ccc(Cl)cc2)C1` [Example 216, 2-(2-chloro-4-hydroxyphenoxy)-4-(4-{[2-(4-chlorophenyl)-4,4-dimethylcyclohex-1-en-1-yl]methyl}piperazin-1-yl)-N-({3-nitro-4-[(1-tetrahydro-2H-pyran-4-ylpiperidin-4-yl)amino]phenyl}sulfonyl)benzamide]: the inhibition constant (Ki) is 0.027 nM.

On to `CC1(C)CCC(CN2CCN(c3ccc(C(=O)NS(=O)(=O)c4ccc(NC5CCN(C6CCOCC6)CC5)c([N+](=O)[O-])c4)c(Oc4cc5cc[nH]c5cc4C(F)(F)F)c3)CC2)=C(c2ccc(Cl)cc2)C1` [Example 218, 4-(4-{[2-(4-chlorophenyl)-4,4-dimethylcyclohex-1-en-1-yl]methyl}piperazin-1-yl)-N-({3-nitro-4-[(1-tetrahydro-2H-pyran-4-ylpiperidin-4-yl)amino]phenyl}sulfonyl)-2-{[6-(trifluoromethyl)-1H-indol-5-yl]oxy}benzamide], for which the Ki came to 0.175 nM.

Regarding `CN1CCN(Nc2ccc(S(=O)(=O)NC(=O)c3ccc(N4CCN(CC5=C(c6ccc(Cl)cc6)CC(C)(C)CC5)CC4)cc3Oc3cc4cc[nH]c4c(F)c3F)cc2[N+](=O)[O-])CC1` [Example 220, 4-(4-{[2-(4-chlorophenyl)-4,4-dimethylcyclohex-1-en-1-yl]methyl}piperazin-1-yl)-2-[(6,7-difluoro-1H-indol-5-yl)oxy]-N-({4-[(4-methylpiperazin-1-yl)amino]-3-nitrophenyl}sulfonyl)benzamide], the Ki amounted to 0.127 nM.

Compound `CN1CCC(Nc2ccc(S(=O)(=O)NC(=O)c3ccc(N4CCN(CC5=C(c6ccc(Cl)cc6)CC(C)(C)CC5)CC4)cc3OCc3csc(NC(=O)OC(C)(C)C)n3)cc2[N+](=O)[O-])CC1` [Example 222, tert-butyl 4-[(5-(4-{[2-(4-chlorophenyl)-4,4-dimethylcyclohex-1-en-1-yl]methyl}piperazin-1-yl)-2-{[({4-[(1-methylpiperidin-4-yl)amino]-3-nitrophenyl}sulfonyl)amino]carbonyl}phenoxy)methyl]-1,3-thiazol-2-ylcarbamate] gave a Ki of over 1200 nM.

Compound `CN1CCC(Nc2ccc(S(=O)(=O)NC(=O)c3ccc(N4CCN(CC5=C(c6ccc(Cl)cc6)CC(C)(C)CC5)CC4)cc3OCc3csc(N)n3)cc2[N+](=O)[O-])CC1` [Example 223, 2-[(2-amino-1,3-thiazol-4-yl)methoxy]-4-(4-{[2-(4-chlorophenyl)-4,4-dimethylcyclohex-1-en-1-yl]methyl}piperazin-1-yl)-N-({4-[(1-methylpiperidin-4-yl)amino]-3-nitrophenyl}sulfonyl)benzamide] had an inhibitory constant (Ki) of 10.9 nM.

Take `CC(=O)Nc1cccc(Oc2cc(N3CCN(CC4=C(c5ccc(Cl)cc5)CC(C)(C)CC4)CC3)ccc2C(=O)NS(=O)(=O)c2ccc(NC3CCN(C4CCOCC4)CC3)c([N+](=O)[O-])c2)c1` [Example 225, 2-[3-(acetylamino)phenoxy]-4-(4-{[2-(4-chlorophenyl)-4,4-dimethylcyclohex-1-en-1-yl]methyl}piperazin-1-yl)-N-({3-nitro-4-[(1-tetrahydro-2H-pyran-4-ylpiperidin-4-yl)amino]phenyl}sulfonyl)benzamide]: affinity was put at a Ki of 3.28 nM.

As to `CC1(C)CCC(CN2CCN(c3ccc(C(=O)NS(=O)(=O)c4ccc(NC5CCN(C6CCOCC6)CC5)c([N+](=O)[O-])c4)c(Nc4ccccc4Cl)c3)CC2)=C(c2ccc(Cl)cc2)C1` [Example 226, 2-[(2-chlorophenyl)amino]-4-(4-{[2-(4-chlorophenyl)-4,4-dimethylcyclohex-1-en-1-yl]methyl}piperazin-1-yl)-N-({3-nitro-4-[(1-tetrahydro-2H-pyran-4-ylpiperidin-4-yl)amino]phenyl}sulfonyl)benzamide], the affinity, expressed as Ki, was 7.59 nM.

For the compound `COc1cc2[nH]ccc2cc1Oc1cc(N2CCN(CC3=C(c4ccc(Cl)cc4)CC(C)(C)CC3)CC2)ccc1C(=O)NS(=O)(=O)c1ccc(NC2CCN(C3CCOCC3)CC2)c([N+](=O)[O-])c1` [Example 227, 4-(4-{[2-(4-chlorophenyl)-4,4-dimethylcyclohex-1-en-1-yl]methyl}piperazin-1-yl)-2-[(6-methoxy-1H-indol-5-yl)oxy]-N-({3-nitro-4-[(1-tetrahydro-2H-pyran-4-ylpiperidin-4-yl)amino]phenyl}sulfonyl)benzamide], the inhibition constant (Ki) worked out at 0.174 nM.

On to `CN1CCC(Nc2ccc(S(=O)(=O)NC(=O)c3ccc(N4CCN(CC5=C(c6ccc(Cl)cc6)CC(C)(C)CC5)CC4)cc3Oc3ccc4nc(N)sc4c3)cc2[N+](=O)[O-])CC1` [Example 229, 2-[(2-amino-1,3-benzothiazol-6-yl)oxy]-4-(4-{[2-(4-chlorophenyl)-4,4-dimethylcyclohex-1-en-1-yl]methyl}piperazin-1-yl)-N-({4-[(1-methylpiperidin-4-yl)amino]-3-nitrophenyl}sulfonyl)benzamide], for which affinity was put at a Ki of 1.08 nM.

For `CN1CCC(Nc2ccc(S(=O)(=O)NC(=O)c3ccc(N4CCN(CC5=C(c6ccc(Cl)cc6)CC(C)(C)CC5)CC4)cc3Nc3ccccc3Cl)cc2[N+](=O)[O-])CC1` [Example 230, 2-[(2-chlorophenyl)amino]-4-(4-{[2-(4-chlorophenyl)-4,4-dimethylcyclohex-1-en-1-yl]methyl}piperazin-1-yl)-N-({4-[(1-methylpiperidin-4-yl)amino]-3-nitrophenyl}sulfonyl)benzamide], the Ki worked out at 2.83 nM.

As for `CN(C)CCCNc1ccc(S(=O)(=O)NC(=O)c2ccc(N3CCN(CC4=C(c5ccc(Cl)cc5)CC(C)(C)CC4)CC3)cc2Oc2ccc3c(ccn3C(=O)OC(C)(C)C)c2)cc1[N+](=O)[O-]` [Example 231, tert-butyl 5-[5-(4-{[2-(4-chlorophenyl)-4,4-dimethylcyclohex-1-en-1-yl]methyl}piperazin-1-yl)-2-({[(4-{[3-(dimethylamino)propyl]amino}-3-nitrophenyl)sulfonyl]amino}carbonyl)phenoxy]-1H-indole-1-carboxylate], the inhibitory constant (Ki) turned out to be 36.9 nM.

On to `CC1(C)CCC(CN2CCN(c3ccc(C(=O)NS(=O)(=O)c4ccc(NC5CCN(C6CCOCC6)CC5)c([N+](=O)[O-])c4)c(Oc4ccc5nc(N)sc5c4)c3)CC2)=C(c2ccc(Cl)cc2)C1` [Example 232, 2-[(2-amino-1,3-benzothiazol-6-yl)oxy]-4-(4-{[2-(4-chlorophenyl)-4,4-dimethylcyclohex-1-en-1-yl]methyl}piperazin-1-yl)-N-({3-nitro-4-[(1-tetrahydro-2H-pyran-4-ylpiperidin-4-yl)amino]phenyl}sulfonyl)benzamide], for which the affinity corresponds to a Ki of 1.05 nM.

Consider `CC1(C)CCC(CN2CCN(c3ccc(C(=O)NS(=O)(=O)c4ccc(NCCCN5CCNC(=O)C5)c([N+](=O)[O-])c4)c(Oc4cc5cc[nH]c5cc4F)c3)CC2)=C(c2ccc(Cl)cc2)C1` [Example 233, 4-(4-{[2-(4-chlorophenyl)-4,4-dimethylcyclohex-1-en-1-yl]methyl}piperazin-1-yl)-2-[(6-fluoro-1H-indol-5-yl)oxy]-N-[(3-nitro-4-{[3-(3-oxopiperazin-1-yl)propyl]amino}phenyl)sulfonyl]benzamide], for which the Ki came out at 0.037 nM.

In the case of `CC1(C)CCC(CN2CCN(c3ccc(C(=O)NS(=O)(=O)c4ccc(NC5CCN(CC6CC6)CC5)c([N+](=O)[O-])c4)c(Oc4cc5cc[nH]c5cc4F)c3)CC2)=C(c2ccc(Cl)cc2)C1` [Example 236, 4-(4-{[2-(4-chlorophenyl)-4,4-dimethylcyclohex-1-en-1-yl]methyl}piperazin-1-yl)-N-[(4-{[1-(cyclopropylmethyl)piperidin-4-yl]amino}-3-nitrophenyl)sulfonyl]-2-[(6-fluoro-1H-indol-5-yl)oxy]benzamide], the inhibitory constant (Ki) is 0.071 nM.
